In PMC3091354 (Journal of chromatography. B, Analytical technologies in …, 2011):
“And” between values parts separate entries of the source, which are not always exact repeats. Equal entries are not always repeated. Where two headings read alike, the source gives them in different places.

Tests used:
[1] = Stability of 3-MoSA in mouse brain homogenate to freezing; assay type: physicochemical; details: storage 7 months at −80°C
[2] = assay type: in vivo; details: mouse; for concentration at 1 week: male, C57BL/6N, oral; for Concentration in brain: 1 week
[3] = assay type: in vivo; details: mouse; for Tmax / MRT inf: male, C57BL/6N, ip
cells = details: all cells tested; cited from earlier work
[4] = single i.p. 200 mg/kg, plasma, 200 mg/kg

Stability: fraction recovered after storage [1]: 77% and 76.87%
concentration at 1 week ([2]; brain, 3 g/l, Concentration in brain, drink at 3 g/l): 18000 ng/g
concentration at 1 week ([2]; brain, 5 g/l, Concentration in brain, drink at 5 g/l): 25000 ng/g
concentration at 1 week ([2]; brain, 7 g/l, Concentration in brain, drink at 7 g/l): 38000 ng/g
concentration at 1 week ([2]; brain, 10 g/l, Concentration in brain, drink at 10 g/l): 82000 ng/g
concentration at 1 week ([2]; heart, 3 g/l, Concentration in heart, drink at 3 g/l): 23900 ± 6500 ng/g
concentration at 1 week ([2]; heart, 5 g/l, Concentration in heart, drink at 5 g/l): 46300 ± 6000 ng/g
concentration at 1 week ([2]; heart, 7 g/l, Concentration in heart, drink at 7 g/l): 53500 ± 8100 ng/g
concentration at 1 week ([2]; heart, 10 g/l, Concentration in heart, drink at 10 g/l): 60200 ± 8700 ng/g
concentration at 1 week ([2]; kidney, 3 g/l, Concentration in kidney, drink at 3 g/l): 91100 ± 16300 ng/g
concentration at 1 week ([2]; kidney, 5 g/l, Concentration in kidney, drink at 5 g/l): 155000 ± 20300 ng/g
concentration at 1 week ([2]; kidney, 7 g/l, Concentration in kidney, drink at 7 g/l): 210000 ± 13100 ng/g
concentration at 1 week ([2]; kidney, 10 g/l, Concentration in kidney, drink at 10 g/l): 212000 ± 17400 ng/g
concentration at 1 week ([2]; liver, 3 g/l, Concentration in liver, drink at 3 g/l): 74100 ± 11700 ng/g
concentration at 1 week ([2]; liver, 5 g/l, Concentration in liver, drink at 5 g/l): 204000 ± 22000 ng/g
concentration at 1 week ([2]; liver, 7 g/l, Concentration in liver, drink at 7 g/l): 252000 ± 24300 ng/g
concentration at 1 week ([2]; liver, 10 g/l, Concentration in liver, drink at 10 g/l): 259000 ± 26200 ng/g
concentration at 1 week ([2]; plasma, 3 g/l, Concentration in plasma, drink at 3 g/l): 4000 ± 1000 ng/mL
concentration at 1 week ([2]; plasma, 5 g/l, Concentration in plasma, drink at 5 g/l): 5400 ± 1100 ng/mL
concentration at 1 week ([2]; plasma, 7 g/l, Concentration in plasma, drink at 7 g/l): 10800 ± 1600 ng/mL
concentration at 1 week ([2]; plasma, 10 g/l, Concentration in plasma, drink at 10 g/l): 11500 ± 1200 ng/mL
concentration at 1 week ([2]; spleen, 3 g/l, Concentration in spleen, drink at 3 g/l): 46600 ± 7900 ng/g
concentration at 1 week ([2]; spleen, 5 g/l, Concentration in spleen, drink at 5 g/l): 82200 ± 7200 ng/g
concentration at 1 week ([2]; spleen, 7 g/l, Concentration in spleen, drink at 7 g/l): 185000 ± 11600 ng/g
concentration at 1 week ([2]; spleen, 10 g/l, Concentration in spleen, drink at 10 g/l): 192000 ± 23600 ng/g
Concentration in brain ([2]; drink at 3 g/l): 18.1 ± 4.4 µg of 3-MoSA/g of tissue
Concentration in brain ([2]; drink at 5 g/l): 24.7 ± 3.1 µg of 3-MoSA/g of tissue
Concentration in brain ([2]; drink at 7 g/l): 37.6 ± 0.8 µg of 3-MoSA/g of tissue
Concentration in brain ([2]; drink at 10 g/l): 82.3 ± 24.5 µg of 3-MoSA/g of tissue
Tmax ([3]; brain, 200 mg/kg): 15 min
MRT inf ([3]; heart, 200 mg/kg): 54 min
Tmax ([3]; heart, 200 mg/kg): 15 min
MRT inf ([3]; kidney, 200 mg/kg): 54 min
Tmax ([3]; kidney, 200 mg/kg): 30 min
MRT inf ([3]; liver, 200 mg/kg): 60 min
Tmax ([3]; liver, 200 mg/kg): 15 min
Tmax ([3]; plasma, 200 mg/kg): 30 min
MRT inf ([3]; spleen, 200 mg/kg): 60 min
Tmax ([3]; spleen, 200 mg/kg): 15 min
Time to distribution to heart, spleen, liver and kidneys after administration ([3]; single i.p. 200 mg/kg): 15 to 30 min
Time of maximum brain concentration (CBmax) ([3]; single i.p. 200 mg/kg, brain): 15 min
Cmax, brain ([3]; single i.p. 200 mg/kg, brain, 200 mg/kg): 1395 ± 207 µg/g and 1395.3 ± 207.0 µg/g
AUC (0-t), heart ([3]; single i.p. 200 mg/kg, heart): 546.7 ± 52.4 µg·h/g
AUC (0-t), kidney ([3]; single i.p. 200 mg/kg, kidney): 1981.6 ± 174.0 µg·h/g
Cmax, kidney ([3]; single i.p. 200 mg/kg, kidney): 1703.1 ± 146.1 µg/g
AUC (0-t), liver ([3]; single i.p. 200 mg/kg, liver): 540.4 ± 37.1 µg·h/g
Cmax, liver ([3]; single i.p. 200 mg/kg, liver): 880.4 ± 122.3 µg/g
AUC (0-t), plasma [3, 4]: 361.5 ± 41.6 µg·h/mL
CL/F (total body clearance) [3, 4]: 544.1 L/h/kg
Cmax, plasma [3, 4]: 342600 ± 56400 ng/mL
Elimination t1/2, plasma [3, 4]: 36 min
V/F (apparent volume of distribution, Vd/F) [3, 4]: 486.4 L/kg
AUC (0-t), spleen ([3]; single i.p. 200 mg/kg, spleen): 734.5 ± 60.7 µg·h/g
Time after injection up to which 3-MoSA was detectable in tissue ([3]; single i.p. 200 mg/kg, tissue): up to 4 h
SMILES: COc1cccc(CN)c1O [3-MoSA, 3-methoxy-2-hydroxybenzylamine]
Drug accumulation over time in organs ([3]; single i.p. 200 mg/kg, organs studied): no evidence of specific drug accumulation over time
Cytotoxicity (cells): not cytotoxic
